Data reported in paper PMC5995969, “Structural basis for the regulation of human 5,10-methylenetetrahydrofolate reductase by phosphorylation and S-adenosylmethionine inhibition” (Nature Communications, 2018).

Key:
mouse MTHFR = target: T1, mouse MTHFR (Mus musculus, UniProt Q9WU20); assay: analytical size exclusion chromatography / DSF; type: binding
T1 sequence (Q9WU20 357-654): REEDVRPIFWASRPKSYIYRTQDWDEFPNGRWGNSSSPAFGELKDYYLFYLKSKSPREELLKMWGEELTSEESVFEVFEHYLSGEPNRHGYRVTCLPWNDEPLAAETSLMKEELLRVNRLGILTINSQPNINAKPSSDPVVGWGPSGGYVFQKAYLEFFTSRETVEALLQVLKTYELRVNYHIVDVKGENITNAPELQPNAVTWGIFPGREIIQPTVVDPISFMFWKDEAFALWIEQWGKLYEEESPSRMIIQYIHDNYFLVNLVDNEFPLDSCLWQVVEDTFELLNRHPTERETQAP

[1] = target: T2, 5,10-methylenetetrahydrofolate reductase (MTHFR) (Homo sapiens, UniProt P42898); assay: HPLC-based enzyme activity assay; also native MS, DSF and aSEC; type: biochemical; settings: read-out: Inhibition (μM) / SAM Ki (95% CI)
T2 construct: HsMTHFR1–656 (phosphorylated, as purified)

[2] = target: T3, 5,10-methylenetetrahydrofolate reductase (MTHFR) (Homo sapiens, UniProt P42898, A368L); assay: differential scanning fluorimetry; aSEC; type: binding
T3 construct: HsMTHFR348–656
T3 sequence (P42898 348-656 A368L): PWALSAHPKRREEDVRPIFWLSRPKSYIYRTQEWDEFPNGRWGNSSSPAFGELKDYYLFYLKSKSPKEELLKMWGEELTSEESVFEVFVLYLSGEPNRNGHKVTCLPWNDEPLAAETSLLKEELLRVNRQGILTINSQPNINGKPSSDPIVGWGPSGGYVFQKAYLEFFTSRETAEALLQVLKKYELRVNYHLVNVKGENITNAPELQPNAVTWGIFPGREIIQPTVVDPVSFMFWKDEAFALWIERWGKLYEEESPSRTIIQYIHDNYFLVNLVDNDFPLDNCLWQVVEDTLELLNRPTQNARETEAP

Row | SMILES | analytical size exclusion chromatography / DSF (mouse MTHFR) | Ki [1] [µM] | differential scanning fluorimetry; aSEC [2]
1 | Nc1ncnc2c1ncn2[C@@H]1O[C@H](CSCC[C@H](N)C(=O)O)[C@@H](O)[C@H]1O [SAH, S-adenosylhomocysteine] | A similar pattern of results were observed when using purified recombinant mouse MTHFR of the same protein boundaries |  | 
2 | C[S+](CC[C@H](N)C(=O)[O-])C[C@H]1O[C@@H](n2cnc3c(N)ncnc32)[C@H](O)[C@@H]1O (stereo partly shown) [SAM, S-adenosylmethionine] | A similar pattern of results were observed when using purified recombinant mouse MTHFR of the same protein boundaries | 2.7 | p.A368L resulted in protein which retained the ability to bind SAM, but was less sensitive to change
